Reference: patent US20190231771A1, “METHODS FOR TREATMENT AND PREVENTION OF OPIOID INDUCED CONSTIPATION USING ORAL COMPOSITIONS OF METHYLNALTREXONE” (Salix Pharmaceuticals, Ltd., priority 2011, published 2019)
Read-outs that look alike come from different tables or passages of the source.

Legend:
[1] = Study C: single and multiple dose pharmacokinetics of MNTX and metabolites, MNTX 450 mg PO x 7 days; type: in vivo, human; conditions: for bioavailability: oral, MNTX tablets 450 mg, cross-study AUCinf comparison; for bioavailability / half-life / AUC(0-inf) / AUC(0-t) / Cmax: 450 mg; for half-life / AUC(0-inf) / AUC(0-t) / Cmax: po; for AUC(0-t): read-out: AUC0-24; for Cmax: read-out: Cmax
Procedure: (§1) Presented herein is a clinical pharmacokinetics study, Study C, as well as Studies A and B. Study A investigated the single and multiple dose pharmacokinetics of methylnaltrexone (MNTX) and its metabolites (M2: methylnaltrexone sulfate; M4: 6α-methylnaltrexol; and M5: 6β-methylnaltrexol) following the subcutaneous administration of 12 mg methylnaltrexone. In Study B, the single and multiple dose pharmacokinetics of methylnaltrexone (MNTX) and its metabolites (M2, M4, and M5) were examined following a 20-minute short intravenous infusion of 24 mg of methylnaltrexone (MNTX).
In addition, the urinary elimination of MNTX was characterized.
(§2) Pharmacokinetic parameters included Cmax, AUCt, AUCinf, tmax, t1/2, % Re24, accumulation factor (R) as defined below and metabolite/parent drug ratio.
(§3) R=Accumulation Factor(based on AUC0-24(ng·h/mL):Day 7 AUC AUC0-24/Day 1 AUC0-24
(§4) Metabolite-Parent Drug ratio(based on ng·h/mL)(%)=100*(Metabolite AUC24/MNTX AUC24)
(§5) Note: AUCinf was used in place of AUC AUC0-24 for R and Metabolite-Parent Drug ratio computations following IV administration.

[2] = Study B: single and multiple dose pharmacokinetics after 20-minute intravenous infusion of 24 mg methylnaltrexone; type: in vivo, human; conditions: 24 mg IV infusion; for AUC(0-inf) / Cmax: iv, 24 mg; for Cmax: read-out: Cmax
Procedure: as §1, §2, §3, §4, §5

[3] = test system: subjects with chronic non-malignant pain who have Opioid Induced Constipation (OIC); test: Phase 3 randomized double-blind placebo-controlled study of Oral Methylnaltrexone for OIC; type: in vivo, human
Procedure: A phase 3, multicenter, randomized, double-blind, placebo-controlled, parallel-group study of OM for the treatment of OIC in approximately 802 subjects with chronic non-malignant pain was conducted.
Constipation due to opioid use during the screening period: Constipation is defined as <3 Rescue-Free Bowel Movements (RFBMs) per week on average (no laxative use within 24 hours prior to bowel movement) that were associated with 1 or more of the following (based on subject's diary report): • a. A Bristol Stool Form Scale type 1 or 2 for at least 25% of the rescue-free bowel movements. • b. Straining during at least 25% of the rescue-free bowel movements. • c. A sensation of incomplete evacuation after at least 25% of the rescue-free bowel movements.
Subjects who remained eligible at the baseline visit (day 1) were randomly assigned to either OM tablet formulation 150 mg, 300 mg, 450 mg, or placebo initially in a 1:1:1:1 allocation ratio. Subjects were required to take three tablets per day, first thing in the morning on an empty stomach (prior to breakfast). Subjects were instructed to swallow the tablets whole and never to chew, divide, or crush them and wait at least one half hour before ingesting any food. Subjects participated in the study for up to 84 days. The first 28 days were once daily dosing; the remaining 56 days were dosing as needed (PRN). Dosing remained double-blind throughout the 12 week period (84 days). The 84 day treatment period were followed by a 14-day post-treatment follow-up period (±2 days). Enrollment continued until a total of approximately 802 subjects have been randomized and dosed.
At the baseline visit, subjects were randomly assigned to either OM or placebo. Subjects who met all inclusion and no exclusion criteria at the baseline visit (day 1) received study medication. All doses were to be taken in the morning prior to breakfast [The first dose administered at the baseline visit could have been taken after Noon (12:00 pm)] and subjects were instructed to wait at least one half hour before ingesting any food. Subjects participated in the study for up to 84 days: the first 28 days were double-blind once daily dosing; the remaining 56 days were double-blind PRN dosing.
The primary efficacy endpoint of this Phase 3 study was the average proportion of rescue-free laxation responses per subject within 4 hours of all doses during the first four weeks of dosing. The key secondary efficacy endpoints in hierarchical order were:
1. Change in weekly number of RFBM from baseline during Weeks 1 to 4
2. Response (responder/non-responder) to study drug during Weeks 1 to 4, where responder was defined as having ≥3 RFBM/week, with at least 1 RFBM/week increase over baseline, for at least 3 out of the first 4 weeks.
The primary efficacy endpoint was the average proportion of rescue-free laxation responses per subject within 4 hours of all doses during the first 4 weeks of dosing.
The two key secondary efficacy endpoints in hierarchical order were: • 1. Change in weekly number of RFBMs from baseline over the entire first 4 weeks (28 days) of dosing. • 2. Response (responder/non-responder) to study drug during Weeks 1 to 4, where responder is defined as having […], with at least 1 RFBM/week increase over baseline, for at least 3 out of the first 4 weeks. […]

[4] = cited from earlier work
[5] = human, plasma, 450 mg Tablets oral, Day 1, mean
[6] = human, plasma, 450 mg Tablets oral, Day 7, mean
[7] = 150 mg, 300 mg and 450 mg daily oral vs placebo
[8] = orally administered MNTX, other studies

Compound: C[N@+]1(CC2CC2)CC[C@]23c4c5ccc(O)c4O[C@H]2C(=O)CC[C@@]3(O)[C@H]1C5.[Br-] [MNTX, (R)—N-(cyclopropylmethyl) noroxymorphone methobromide]
- R (PO), accumulation factor ([1]; 450 mg Tablets oral, AUC0-24 on Day 7/AUC0-24 on Day 1): 1.20
- bioavailability ([1]; human, plasma, multiple dose, read-out: bioavailability relative to IV multiple dose administration): 5.8%
- bioavailability ([1]; human, plasma, multiple dose, read-out: bioavailability relative to SC multiple dose administration): 4.8%
- bioavailability ([1]; human, plasma, single dose, read-out: absolute bioavailability (relative to IV infusion)): 4.24%
- bioavailability ([1]; human, plasma, single dose, read-out: bioavailability relative to SC injection): 3.7%
- half-life ([1]; human, plasma, 450 mg Tablets oral, Day 1, harmonic mean): 8.8 h
- AUC(0-inf) [1, 5]: 315 ng·h/mL
- AUC(0-t) [1, 5]: 280 ng·h/mL
- Cmax [1, 5]: 47 ng/mL
- half-life ([1]; human, plasma, 450 mg Tablets oral, Day 7, harmonic mean): 19.2 h
- AUC(0-inf) [1, 6]: 404 ng·h/mL
- AUC(0-t) [1, 6]: 309 ng·h/mL
- Cmax [1, 6]: 45.5 ng/mL
- Tmax ([1]; human, plasma, 450 mg Tablets oral, Day 1, median, read-out: Tmax): 2 h
- R (IV), accumulation factor ([2]; AUCinf used): 1.17
- AUC(0-inf) ([2]; human, in vivo, Day 1, mean): 396 ng·h/mL
- Cmax ([2]; human, in vivo, Day 1, mean): 533 ng/mL
- AUC(0-inf) ([2]; human, in vivo, Day 7, mean): 375 ng·h/mL
- Cmax ([2]; human, in vivo, Day 7, mean): 520 ng/mL
- half-life ([2]; human, in vivo, day not given): 10.8 h
- AUC(0-t) ([2]; human, in vivo, day not given, mean, read-out: AUC0-6): 326 ng·h/mL
- primary efficacy endpoint: average proportion of rescue free bowel movements per subject within 4 hours of all doses during the first 4 weeks of dosing [3, 7]: demonstrate efficacy
- secondary efficacy endpoints: change in weekly number of RFBMs from baseline weeks 1-4; response to study drug [3, 7]: further demonstrate efficacy
- adverse events ([3]; dosages of 150 mg, 300 mg and 450 mg): did not result in adverse events
- proportion of subjects with rescue free bowel movements within 4 hours of the first dose ([3]; first dose of study drug): further confirmed efficacy
- laxation effects, fasted compared to non-fasted subjects ([3]; phase 3 study, following the first dose of study drug): increased in fasted subjects compared to non-fasted subjects
- bioavailability (in words) [4, 8]: low bioavailability
- plasma protein binding (in words) [4, 8]: low plasma protein binding
- tissue distribution (in words) [4, 8]: limited tissue distribution outside the GI tract
- increase of systemic absorption by fasting ([4]; prior study): approximately 25%
